Consider 1 compound from US20040242459A1 (priority 2001, published 2004).

Experiment [1] has as its target T1, recombinant human PPARα (GST-PPARα) (Homo sapiens, UniProt Q07869).
T1 construct: The full length human cDNAs for PPARδ and PPARα were subcloned into the pGEX-KT expression vector; made in house; host or cells: E. coli
T1 sequence (Q07869 1-468): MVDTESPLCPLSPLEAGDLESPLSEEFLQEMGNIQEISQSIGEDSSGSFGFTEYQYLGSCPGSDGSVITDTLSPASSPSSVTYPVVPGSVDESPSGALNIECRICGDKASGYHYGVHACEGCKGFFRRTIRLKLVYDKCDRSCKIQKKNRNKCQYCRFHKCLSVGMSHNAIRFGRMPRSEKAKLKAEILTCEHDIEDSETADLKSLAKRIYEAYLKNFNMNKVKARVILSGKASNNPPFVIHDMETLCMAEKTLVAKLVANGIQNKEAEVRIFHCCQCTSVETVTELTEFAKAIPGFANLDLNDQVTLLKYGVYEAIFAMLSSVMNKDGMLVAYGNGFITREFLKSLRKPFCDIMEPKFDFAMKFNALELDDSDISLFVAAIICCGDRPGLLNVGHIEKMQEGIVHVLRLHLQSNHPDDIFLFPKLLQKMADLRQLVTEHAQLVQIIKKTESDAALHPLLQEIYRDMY
As to the kind of experiment: Scintillation Proximity Assay, displacement of [3H2]Compound A from PPARα. Type of experiment: binding. The conditions noted are these: human PPARα binding; read-out: IC50 (μM: SPA or BND) Alpha. An excerpt:
(§1) As an approach to identifying human PPAR agonists, a Scintillation Proximity Assay was used to characterize PPAR-γ, PPAR-δ, and PPAR-α ligands.
(§2) Human PPARγ2, human PPARδ and human PPARα were expressed as GST-fusion proteins in E. coli. The full length human cDNA for PPARγ 2 was subcloned into the pGEX-2 T expression vector (Amersham Pharmacia Biotech, Inc.). The full length human cDNAs for PPARδ and PPARα were subcloned into the pGEX-KT expression vector (Amersham Pharmacia Biotech, Inc.). E. coli containing the respective plasmids were propagated, induced, and harvested by centrifugation. The resuspended pellet was broken in a French press and debris removed by centrifugation. Recombinant human PPAR receptors were purified by affinity chromatography on glutathione sepharose. After application to the column, and one wash, receptor was eluted with glutathione. Glycerol (10%) was added to stabilize the receptor and aliquots were stored at −80° C.
(§3) After incubation for ˜16 h at 15° C. with shaking, the assay plates were counted in a Packard Topcount with quench correction.

The target of experiment [2] is T2, recombinant human PPARδ (GST-PPARδ) (Homo sapiens, UniProt Q03181).
T2 construct: The full length human cDNAs for PPARδ and PPARα were subcloned into the pGEX-KT expression vector; made in house; host or cells: E. coli
T2 sequence (Q03181 1-441): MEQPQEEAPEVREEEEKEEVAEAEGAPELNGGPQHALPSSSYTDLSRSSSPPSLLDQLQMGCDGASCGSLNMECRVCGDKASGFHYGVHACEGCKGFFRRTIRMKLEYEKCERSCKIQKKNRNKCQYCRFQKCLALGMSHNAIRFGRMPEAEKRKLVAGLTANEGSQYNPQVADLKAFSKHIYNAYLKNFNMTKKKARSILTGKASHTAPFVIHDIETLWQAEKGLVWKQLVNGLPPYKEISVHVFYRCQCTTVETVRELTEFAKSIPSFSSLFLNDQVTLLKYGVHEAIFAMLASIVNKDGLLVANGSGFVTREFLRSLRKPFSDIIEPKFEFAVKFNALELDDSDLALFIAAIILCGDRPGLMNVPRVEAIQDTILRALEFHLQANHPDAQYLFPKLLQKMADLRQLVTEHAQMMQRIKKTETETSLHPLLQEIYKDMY
As to the kind of experiment: Scintillation Proximity Assay, displacement of [3H2]Compound B from PPARδ. The conditions noted are these: human PPARδ binding; read-out: IC50 (μM: SPA or BND) Delta. The format is binding.
From the text: as §1, §2, §3

Molecules are shown by their SMILES.

Regarding `CCCc1cc(Oc2ccccc2)ccc1OCCc1cc2cc(CC(=O)O)ccc2[nH]1` [Compound 2, {2-[2-(4-phenoxy-2-propylphenoxy)ethyl]-1H-indol-5-yl}acetic acid], the IC50 in experiment [1] turned out to be 1.48 µM; in experiment [2], 15 µM.
